Test results published in patent publication US8916607B2, “Use of piperphentonamine or salts thereof in manufacture of medicaments for treating brain diseases” (Guangzhou Municipal Zhongwei Biotechnology Limited Company, priority 2009, dated 2014).

How the values were obtained:
[1] = system: cerebral hemorrhage in rats induced by collagenase; assay: ICH model induced by collagenase: histopathological observation; format: in vivo, Wistar rats; settings: small doses (0.5 mg/kg) in advance
Method: Influence of piperphentonamine hydrochloride on pathological morphology of cerebral hemorrhage in rats was observed. Each group animals were selected randomly, anesthetized deeply by chloral hydrate at predetermined time point, decollated and the brain were taken out rapidly, then, the brain tissue slices with hematoma (about 5 mm) were cut, and put into 10% formaldehyde solution immediately, fixed for 24 h followed by dehydration by graded ethanol, transparentizing by xylene, immersing in paraffin, embedding, slicing (5 μm), HE staining and sealing. The pathological changes area and the pathological change of the adjacent brain tissue were observed by optical microscope.

[2] = system: cultured cerebral neurons; assay: NMDA induces neuron injury in primary cultured neurons; format: cell-based, rat; settings: drug 50 mmol/L; NMDA 50 mmol/L, 12 h
[3] = system: human brain disease; assay: research in treating human brain diseases (no details); format: in vivo
[4] = system: cerebral edema of mice caused by closed cerebral trauma; assay: closed cerebral trauma model of mice, brain water content; format: in vivo, Kunming mice; settings: 2 mg/kg iv, brain taken after 24 h
Method: There were 10 mice in each group.
The closed cerebral trauma model of mice being established after fasting for 16 hours, administering intravenously to each group, striping and taking the brain of mouse after 24 hours, weighing the wet weight, and drying at 70° C. for 24 hours, then weighing the dry weight, and calculating brainwater content; the brain water content which is higher than normal values indicates the cerebral edema.
The grouping method, administer method and model preparation were referred to example 2.

## piperphentonamine
[1]
  pathological morphology of cerebral hemorrhage: could ease the pathological changes above-mentioned in different levels
[2]
  mortality: 30%
[3]
  treating human brain and other diseases: obvious effect and clinical significance
[4]
  water content of cerebra (%): 78.31 ± 5.72 %
